“Also recorded” adds a separate entry of the source. One block for each compound: values may come before it. Starred links: 1 amine or outer side, 2 acyl side, 3 side chain; linkers in the order of their positions; H or OH if unused. Positions of bridges follow the written chain, without caps; N, C: chain ends. Residues, ends and D or L forms follow the SMILES beside them. X1 = C(C[*:1])C[*:2]
Tests used:
circular dichroism = conditions: deionized water; pH unbuffered; 20 °C; 25 uM
[1] = Circular dichroism (helicity); assay type: physicochemical; conditions: CD in water, 20° C.
Protocol: Circular dichroism spectra were recorded on a CHIRASCAN™ spectrometer. Peptides were dissolved in deionized water, at a concentration of 25 μM. CD signal was monitored at 1 nm intervals from 180 to 260 nm with a 1-mm path quartz cuvette. The data reported is the average of three scans, subtracting the background. The helical content of each peptide was determined using prism 7 software, with molar ellipticity [θ][deg·cm^2dmol^−1] being calculated using the following formula: [θ]=1000000×0/(C×#of residues×l), where θ is the ellipticity read out from Chirascan, C is the concentration of peptide samples in μM, l is the pathlength of the cuvette measured in mm. The percentage helicity was calculated with formula:% Hellicity=100×[θ]222/[θ]max222, where [θ]max222=−31500×[1−([…])].

Plasma stability test = assay type: in vitro ADME; conditions: human plasma, 37° C.
Protocol: 1 mM stock solution of the corresponded peptide was prepared in PBS buffer (pH 7.4). Next, 50 μL from […] this solution were added to 1 mL of human plasma (Sigma-Aldrich, P9523). The mixture was incubated at 37° C. with mechanical shaking at 300 rpm. Aliquots were withdrawn in portions of 150 μL at different time points for analysis and mixed with 60 μL ACN/EtOH (1:1 v/v) for plasma protein precipitation. After centrifugation at 12000 rpm for 5 min, the supernatant was collected and analyzed by HPLC and HPLC-MS.

α-chymotrypsin = molecular target: T1, α-chymotrypsin (Bos taurus, UniProt P00766); test: Chymotrypsin stability test; assay type: in vitro ADME, bovine; conditions: bovine, pH 8; read-out: t1/2 chymotrypsin stability assay (converted)
T1 construct: freshly prepared α-chymotrypsin from bovine pancreas type II, ≥40 U/mg; purchased; host or cells: bovine pancreas
Protocol: (§1) Assays were performed using freshly prepared α-chymotrypsin from bovine pancreas type II, ≥40 U/mg. The enzyme was initially reconstituted in HCl […] (1 μg/μL), and kept in ice until used. Peptides stock solutions were prepared in assay buffer (50 mM Tris.HCl pH=8.0, 560 μM calcium chloride, 0.1% Tween-20) containing <3% of DMSO. The reactions were performed at a 200 μL scale, in assay buffer, at final concentrations of 50 μM for peptide and […] for α-chymotrypsin (10 μL from the reconstitution solution). The mixture was incubated at 37° C. and aliquots were withdrawn in portions of 25 μL at different time points for analysis. The removed aliquots were mixed with 25 μL of water 1% TFA, and then treated with a column for detergent removal following the manufacturer's protocol (Pierce, Catalog #:87776). The rate of peptide proteolysis was monitored by HPLC and HPLC-MS analysis. Control experiments were carried out under the same conditions but using BSA instead of α-chymotrypsin.

[2] = molecular target: T2, α-chymotrypsin from bovine pancreas type II (Bos taurus, UniProt P00766); test: Chymotrypsin stability test; assay type: in vitro ADME
T2 construct: freshly prepared α-chymotrypsin from bovine pancreas type II, ≥40 U/mg; purchased; host or cells: bovine pancreas
Protocol: as §1

FIG. 5A = test: FIG. 5A
Protocol: (§2) Table printed on a drawing sheet, FIG. 5A
(§3) FIG. 5C is a CD spectra of stapled peptides and their linear counterparts measured in water at 20° C.;
(§4) FIG. 5E is a plot of H3K27me3 inhibition obtained in an enzymatic assay using endogenous PRC2 extracted from Caki-1 cells and recombinant PRC2 complex (for compound 11);
First reader's note: Half-life units (min or h) stand in the cells; the compound structures are in the upper table of FIG. 5A.

[3] = system: endogenous PRC2 extracted from a human clear cell renal carcinoma cell line (Caki-1); test: H3K27Me3 Inhibition (% at 1 mM)
Protocol: as §2
Head of the field: H3K27Me3 Inhibition (% at 1 mM)
as §3, §4
First copying reader's note: Half-life units (min or h) stand in the cells; the compound structures are in the upper table of FIG. 5A.
Where the first naming reader finds the target: passage: using as catalytic complex endogenous PRC2 extracted from a human clear cell renal carcinoma cell line (Caki-1)

Caki-1 cells = assay type: cell-based, human; conditions: 72 h
Protocol: All of the cells were grown adherently.
Antiproliferative assays. […] For the following 72h, every 24 h the cell culture media was changed and fresh media containing the compounds was added, 1% DMSO was used as control. After 72h of treatment, both floating and attached cells were collected and analyzed.

FIG. 2D = test: FIG. 2D
Excerpt: Table printed on a drawing sheet, FIG. 2D
The patent's description of the figure: FIG. 2A depicts the results of biochemical assays showing structure of the synthesized stapled peptides, and their correspondent helicity and IC50 values for inhibition of H3K27 trimethylation in vitro, as determined by a histone methyltransferase colorimetric assay optimized using endogenous PRC2 extracted from a human clear cell renal carcinoma cell line (Caki-1);
FIG. 2B depicts a CD spectra of stapled peptides and their linear counterparts measured in water at 20° C.;
FIG. 2C illustrates a plot of H3K27 trimethylation inhibition using the enzymatic in vitro assay described in FIG. 2A, with varying concentrations of 2 (GN-ZB2), positive control GSK126, and using an equimolar combination of both compounds to test their synergistic effects. A summary of the IC50 values for inhibition of H3K27me3 determined from the experiments is also presented. […]
FIG. 2D show both Chymotrypsin-based proteolytic degradation as well as the plasma assay show remarkable stability of the disclosed i, i+4 and i, i+7 12 bisthioether stapled peptides. The rate of peptide proteolysis was monitored by HPLC and HPLC-MS analysis.
First reader's note: The Assay column joins the peptide number (label) with the matrix (chymotrypsin or plasma, condition); units stand in the cells.

helicity [1]: 4.8%
time to full degradation in plasma (Plasma stability test): 5 min
Compound: Ac-TVDKIASALSVLAEEVPQN-NH2 [compound 1, reference compound]
helicity (circular dichroism): 4.8%

half-life at 50 μM (α-chymotrypsin): 20.5 h
Compound: CC[C@H](C)[C@H](NC(=O)[C@H](CCCCN)NC(=O)[C@@H]1CSCCCSC[C@H](NC(=O)[C@@H](NC(C)=O)C(C)C)C(=O)N[C@@H](CC(N)=O)C(=O)N[C@@H](CCC(=O)O)C(=O)N[C@@H](CCC(=O)O)C(=O)N1)C(=O)N[C@@H](Cc1c[nH]c2ccccc12)C(=O)N[C@@H](CCCCN)C(=O)N[C@@H](CCCCN)C(=O)N[C@@H](CC(N)=O)C(=O)N[C@H](C(=O)N1CCC[C@H]1C(=O)N[C@@H](Cc1ccccc1)C(=O)N[C@@H](CC(C)C)C(N)=O)[C@@H](C)O [24 (GN-Z24), V[CNEEC](CH2)3KIWKKNTPFL] (Ac-VCNEECKIWKKNTPFL-NH2; linker 2-6 via X1; C-terminus assumed)
stability to chymotrypsin proteolysis ([2]; HPLC and LC/MS monitoring): enhanced stability; also recorded: marked protection

Compound: CC[C@H](C)[C@H](NC(=O)[C@H](CC(C)C)NC(=O)[C@H](Cc1ccccc1)NC(=O)[C@H](CC(=O)O)NC(=O)[C@H](Cc1c[nH]cn1)NC(=O)[C@H](CCSC)NC(=O)[C@H](CO)NC(=O)[C@@H](NC(=O)[C@@H]1CSCCCSC[C@H](NC(=O)[C@H](CC(N)=O)NC(=O)[C@H](CCCNC(=N)N)NC(=O)[C@H](CS)NC(=O)[C@H](CC(C)C)NC(C)=O)C(=O)N[C@@H](CCSC)C(=O)N[C@@H](CC(C)C)C(=O)N[C@@H](Cc2c[nH]cn2)C(=O)N1)C(C)C)C(N)=O [11 (GN-ZW11), LCRN[CMLHC](CH2)3VSMHDFLI] (Ac-LCRNCMLHCVSMHDFLI-NH2; linker 5-9 via X1)
helicity (circular dichroism): 95.1%
Proteolytic Stability (Chymotripsin, t1/2) (FIG. 5A): 14.4 h
Proteolytic Stability (Plasma, t1/2) (FIG. 5A): 7.3 h
H3K27Me3 Inhibition (% at 1 mM) [3]: 98.3 % at 1 mM

time to full degradation by chymotrypsin [2]: half an hour
half-life ([2]; bovine, read-out: t1/2 chymotrypsin stability assay (converted)): 0.5 h
Compound: Ac-VINEEYKIWKKNTPFL-NH2 [compound 13, reference compound]
helicity (circular dichroism): 16.4%

Compound: CC[C@H](C)[C@@H]1NC(=O)[C@@H](NC(=O)[C@H](CC(=O)O)NC(=O)[C@@H](NC(=O)[C@@H](NC(C)=O)[C@@H](C)O)C(C)C)CSCCCSC[C@@H](C(=O)N[C@@H](CC(C)C)C(=O)N[C@@H](CO)C(=O)N[C@H](C(=O)N[C@@H](CC(C)C)C(=O)N[C@@H](C)C(=O)N[C@@H](CCC(=O)O)C(=O)N[C@@H](CCC(=O)O)C(=O)N[C@H](C(=O)N2CCC[C@H]2C(=O)N[C@@H](CCC(N)=O)C(=O)N[C@@H](CC(N)=O)C(N)=O)C(C)C)C(C)C)NC(=O)[C@H](CO)NC(=O)[C@H](C)NC1=O [2 (GN-ZB2), TVD[CIASC](CH2)3LSVLAEEVPQN] (Ac-TVDCIASCLSVLAEEVPQN-NH2; linker 4-8 via X1; C-terminus assumed)
IC50 (Caki-1 cells): 250 ± 30 nM
stability in plasma (Plasma stability test): high resistance to proteolysis

Compound: CC[C@H](C)[C@@H]1NC(=O)[C@@H](NC(=O)[C@H](CC(=O)O)NC(=O)[C@@H](NC(=O)[C@@H](NC(C)=O)[C@@H](C)O)C(C)C)CSCCCSC[C@@H](C(=O)N[C@@H](CC(C)C)C(=O)N[C@@H](CO)C(=O)N[C@H](C(=O)N[C@@H](CC(C)C)C(=O)N[C@@H](C)C(=O)N[C@@H](CCC(=O)O)C(=O)N[C@@H](CCC(=O)O)C(=O)N[C@H](C(=O)N2CCC[C@H]2C(=O)N[C@@H](CCC(N)=O)C(=O)N[C@@H](CC(N)=O)C(N)=O)C(C)C)C(C)C)NC(=O)[C@H](CO)NC(=O)[C@H](C)NC1=O [2 Chymotrypsin] (Ac-TVDCIASCLSVLAEEVPQN-NH2; linker 4-8 via X1)
Half Life (FIG. 2D): 40.9 h

Compound: CC[C@H](C)[C@@H]1NC(=O)[C@@H](NC(=O)[C@H](CC(=O)O)NC(=O)[C@@H](NC(=O)[C@@H](NC(C)=O)[C@@H](C)O)C(C)C)CSCCCSC[C@@H](C(=O)N[C@@H](CC(C)C)C(=O)N[C@@H](CO)C(=O)N[C@H](C(=O)N[C@@H](CC(C)C)C(=O)N[C@@H](C)C(=O)N[C@@H](CCC(=O)O)C(=O)N[C@@H](CCC(=O)O)C(=O)N[C@H](C(=O)N2CCC[C@H]2C(=O)N[C@@H](CCC(N)=O)C(=O)N[C@@H](CC(N)=O)C(N)=O)C(C)C)C(C)C)NC(=O)[C@H](CO)NC(=O)[C@H](C)NC1=O [2 Plasma] (Ac-TVDCIASCLSVLAEEVPQN-NH2; linker 4-8 via X1)
Half Life (FIG. 2D): 20.6 h

Reference: patent publication US11345725B2, “Bis-thioether stapled peptides as inhibitors of PRC2 function” (Research Foundation of the City University of New York, priority 2019, dated 2022)
